For 14 compounds, TGI and GI50 results are on record in PubChem BioAssay (NCI).

Each structure is given as a SMILES string.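 Following 48 hours of exposure in 96-well plates, responses at five concentrations were used to interpolate endpoints linearly. GI50 marks 50% less growth. The concentration for full growth arrest is given as TGI.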

Assay in all cases: DTP human tumour cell line panel, 48 h
Test [1] concerns HCT-116 colon.
The test system of test [2] is HOP-62 NSCLC.
Test [3] deals with IGROV1 ovarian.
Test [4] relates to KM12 colon.
Test [5] deals with NCI-H522 lung.
Test [6] has as its system OVCAR-5 ovarian.
Test [7] concerns SF-539 CNS.
Test [8] relates to SN12C renal.
The test system of test [9] is HS 578T breast.
Test [10] concerns PC-3 prostate.

In general, TGI refers to the concentration at which net growth stops. Higher therefore signals lower sensitivity of the cells. One may read the GI50 as the concentration giving 50% growth inhibition.

With `CC1=CC[C@@H](C(C)(C)O)C[C@@H]1O`, the concentration for total growth inhibition (TGI) in test [1], in test [2], in test [3], in [4], in [5] and in [6] was greater than 5000 µM throughout. The TGI in test [7] and in [8] was greater than 5000 µM each time.

Regarding `CC(=O)O[C@@H]1CC[C@@]2(C)C(=O)C34C[C@@]5(C)C([C@@H](C)CCCC(C)C)CCC5(C)[C@](O)(O3)C(=O)[C@H]4C2C1(C)C` (some centres undefined), the TGI is 27 µM in test [1]; 33.1 µM in test [2]; 31.6 µM in test [3]; 24 µM in [4]; 25.5 µM in test [5]; 29.3 µM in test [6]. The TGI in [7] is 39.4 µM; in [8], 26.7 µM.

Consider `N#CCCN(c1ccc(C=O)cc1)S(=O)(=O)c1ccccc1`, for which the TGI in [1], in test [2], in [3], in [4], in test [5] and in test [6] was greater than 100 µM each time. For the same compound, the TGI in test [7] and in [8] was greater than 100 µM each time.

As to `COc1ccc2nc3ccccc3c(NCCN(CCCl)CCCl)c2c1`, the concentration for total growth inhibition (TGI) in test [1] was determined as 2.08 µM; in test [2], 2.97 µM; in test [3] it was 4.34 µM; in [4], 4.37 µM; in test [5] it was 1.75 µM; in test [6] it was 2.49 µM. The same compound gave a TGI in test [8] of 4.21 µM.

Turning to `O=C(O)CCC1c2[nH]c3ccccc3c2CCN1Cc1ccccc1` (centres undefined), the TGI in [1], in test [3], in test [4], in [5], in test [6] and in test [7] was greater than 100 µM in each case. The compound further showed a TGI in [8] greater than 100 µM.

As to `COC1C(=O)CCC2(CO2)C1(O)C1(C)OC1CC=C(C)C` (centres undefined), the TGI in test [1], in test [2], in [9], in test [3], in test [4] and in [6] was greater than 100 µM throughout. Moreover, the TGI in test [10] and in test [8] was greater than 100 µM throughout.

For the compound `CCOC(=O)C(=O)C(C#N)c1ccc(Cl)cc1` (centres undefined), the TGI in test [1], in [2], in test [3], in [5], in [6] and in test [7] was greater than 100 µM each time. Further, the TGI in [8] is greater than 100 µM.

In the case of `COc1cc(CC(=O)O)c([N+](=O)[O-])cc1OC`, the TGI in test [1], in [2], in test [3], in [4], in test [5] and in test [6] was greater than 100 µM throughout. In addition, the TGI in test [7] and in test [8] was greater than 100 µM each time.

`O=C(CC(=O)c1cccc([N+](=O)[O-])c1)C(=O)Nc1ccccc1`: the TGI in [1], in test [2], in test [3], in test [4], in test [5] and in test [6] was greater than 100 µM each time. For the same compound, the TGI in [7] and in [8] was greater than 100 µM in each case.

Consider `COc1ccc([C@@H]2OC(=O)C3C2C(=O)O[C@H]3c2ccc(OC)cc2)cc1` (some centres undefined), for which the TGI in [1], in test [2], in test [3], in test [4], in [7] and in [8] was greater than 100 µM each time.

`COC(=O)C(C(=O)C(=O)Nc1ccccc1C)c1nc2ccc([N+](=O)[O-])cc2[nH]c1=O` (centres undefined): the TGI in test [1], in test [2], in test [3], in [4], in test [5] and in test [6] was greater than 100 µM throughout. Also, the TGI in test [7] and in [8] was greater than 100 µM each time.

For `CN(C)CCCCNc1ccc(NCCCCN(C)C)c2c1C(=O)c1c(O)ccc(O)c1C2=O`, the GI50 is 1.51 µM in [1]; 1.7 µM in test [2]; 1.52 µM in test [3]; 1.51 µM in [4]; 1.77 µM in test [5]; 1.66 µM in [6]. In addition, the GI50 in test [10] is 1.94 µM; in test [7], 10.9 µM; in [8] it was 13.1 µM. The TGI in test [1] came out at 2.83 µM; in test [2], 3.13 µM; in test [3], 3.03 µM; in test [4], 2.84 µM; in test [5], 3.58 µM; in [6] it was 3.14 µM. Besides, the TGI was 3.64 µM in test [10], 24.6 µM in [7] and 25.8 µM in test [8].

Consider `O=C(CC1(O)C(=O)Nc2ccccc21)c1ccccc1O` (centres undefined), for which the concentration for total growth inhibition (TGI) in [1], in [2], in test [3], in test [5], in [6] and in test [7] was greater than 100 µM each time. The compound further displayed a TGI in [8] greater than 100 µM.

In the case of `O=C1c2ccc3c4c(ccc(c24)C(=O)N1CCNCc1ccccc1)C(=O)N(CCNCc1ccccc1)C3=O`, the GI50 in [1] was 1.42 µM; in test [2] it was 1.91 µM; in test [9], 1.83 µM; in test [3], 1.72 µM; in test [4] it was 1.69 µM; in test [6], 2.02 µM. Also, the values for the GI50 in test [7] and in test [8] were 1.88 µM and 1.63 µM, respectively. The TGI was 2.89 µM in test [1]; 4.57 µM in test [2]; 5.27 µM in [9]; 4.27 µM in test [3]; 3.31 µM in test [4]; 4.61 µM in test [6]. For the same compound, the TGI in [7] worked out at 3.64 µM; in test [8], 3.05 µM.
